Among the data in ChEMBL document CHEMBL1148832, “Rational design, structure, and biological evaluation of cyclic peptides mimicking the vascular endothelial growth factor” (J Med Chem, 2007) are IC50 and Activity values, retold here.

In assay [1] the target is Vascular endothelial growth factor receptor 1 (Homo sapiens, UniProt P17948). The assay is described as follows: Displacement of biotinylated VEGF165 from human recombinant VEGFR1 by chemiluminescent assay.
Another assay deals with HUVEC. The experiment in a line: Inhibition of VEGF165-induced cell migration in HUVEC at 100 uM after 6 hrs by wound healing assay. As to conditions: Homo sapiens. The class given is functional, cell-based.

Calls of active or inactive are those of the source. No cut-off for these calls is given here. *1 amine or outer side, *2 acyl side, *3 side chain or, on linkers, in order; H or OH if unused. Where a SMILES comes first, the peptide text is derived from it. Bridges are numbered along the chain shown (N, C = ends). [ ]: non-standard residue; d: D form. X1 = O=C([C@H](Cc1cc(=O)oc2cc(O)ccc12)N[*:1])[*:2]; hPhe = N[C@@H](CCc1ccccc1)C(=O)O; β3hE = N[C@@H](CCC(=O)O)CC(=O)O

Sequence of Vascular endothelial growth factor receptor 1 (P17948 whole entry): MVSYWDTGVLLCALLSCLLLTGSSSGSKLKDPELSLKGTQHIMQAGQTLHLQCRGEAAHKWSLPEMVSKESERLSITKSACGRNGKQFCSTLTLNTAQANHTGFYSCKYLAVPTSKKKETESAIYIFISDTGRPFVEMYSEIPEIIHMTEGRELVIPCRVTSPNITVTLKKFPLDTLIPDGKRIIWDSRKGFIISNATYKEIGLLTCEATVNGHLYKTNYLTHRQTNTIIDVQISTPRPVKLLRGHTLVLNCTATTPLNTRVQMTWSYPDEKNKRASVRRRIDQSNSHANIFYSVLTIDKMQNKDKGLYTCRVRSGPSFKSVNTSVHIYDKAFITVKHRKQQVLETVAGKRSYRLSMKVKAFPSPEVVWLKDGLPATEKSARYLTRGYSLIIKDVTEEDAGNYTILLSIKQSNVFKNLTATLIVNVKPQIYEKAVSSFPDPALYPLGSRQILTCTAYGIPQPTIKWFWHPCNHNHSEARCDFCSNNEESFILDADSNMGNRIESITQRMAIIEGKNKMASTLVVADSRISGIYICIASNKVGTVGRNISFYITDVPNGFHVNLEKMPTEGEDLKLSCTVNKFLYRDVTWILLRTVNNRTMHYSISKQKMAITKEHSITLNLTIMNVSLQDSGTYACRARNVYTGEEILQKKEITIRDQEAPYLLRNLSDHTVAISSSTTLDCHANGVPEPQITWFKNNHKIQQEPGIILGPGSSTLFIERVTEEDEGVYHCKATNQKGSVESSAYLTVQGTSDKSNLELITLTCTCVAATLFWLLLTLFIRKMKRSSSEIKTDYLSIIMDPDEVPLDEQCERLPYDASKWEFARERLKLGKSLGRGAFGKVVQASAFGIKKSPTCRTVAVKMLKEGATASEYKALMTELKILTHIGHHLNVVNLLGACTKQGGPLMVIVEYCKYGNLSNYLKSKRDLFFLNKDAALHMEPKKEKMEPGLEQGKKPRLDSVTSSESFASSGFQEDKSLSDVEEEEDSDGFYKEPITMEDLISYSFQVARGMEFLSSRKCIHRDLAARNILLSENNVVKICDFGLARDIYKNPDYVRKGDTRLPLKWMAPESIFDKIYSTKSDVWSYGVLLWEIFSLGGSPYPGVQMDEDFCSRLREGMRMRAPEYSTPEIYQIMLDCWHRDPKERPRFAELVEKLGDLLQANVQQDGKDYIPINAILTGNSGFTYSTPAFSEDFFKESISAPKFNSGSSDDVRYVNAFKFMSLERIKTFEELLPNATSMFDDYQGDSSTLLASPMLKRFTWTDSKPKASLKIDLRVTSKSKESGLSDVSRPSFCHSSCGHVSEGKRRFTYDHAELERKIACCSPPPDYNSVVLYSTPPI

One may read the IC50 as the concentration that gives 50% inhibition. For `CC(C)C[C@@H]1NC(=O)CNC(=O)[C@H](CCC(=O)O)NC(=O)[C@H](Cc2cc(=O)oc3cc(O)ccc23)NC(=O)[C@H](CCc2ccccc2)NC(=O)CC[C@@H](C(N)=O)NC(=O)[C@H](CCC(=O)O)NC1=O` ([hPhe][X1]EGLEE-NH2; lactam N-7), the IC50 in assay [1] was found to be 19.3 µM.

With `CC(C)C[C@@H]1NC(=O)CNC(=O)[C@H](CCC(=O)O)NC(=O)[C@H](CC(=O)O)NC(=O)[C@H](Cc2ccc(O)cc2)NC(=O)[C@H](Cc2ccc(O)cc2)NC(=O)CC[C@@H](C(N)=O)NC(=O)[C@H](CCC(=O)O)NC1=O` (YYDEGLEE-NH2; lactam N-8), the result in the assay with HUVEC was Active.

With `CC(C)C[C@@H]1NC(=O)CNC(=O)[C@H](CCC(=O)O)NC(=O)[C@H](Cc2cc(=O)oc3cc(O)ccc23)NC(=O)[C@H](CCc2ccccc2)NC(=O)CC[C@@H](CC(N)=O)NC(=O)[C@H](CCC(=O)O)NC1=O` ([hPhe][X1]EGLE[β3hE]-NH2; lactam N-7), the result in the assay on HUVEC was Active.
